Experimental findings from patent publication US6525042B1 (Daiichi Pharmaceutical Co., Ltd., priority 1997, dated 2003) are described below.

In experiment [1] the target is T1, human FXa (Homo sapiens, UniProt P00742).
T1 construct: purchased Cosmobio-ERL HFXa-1011
Description: FXa inhibitory action (IC50), end point method. It is filed as biochemical. Conditions: 37° C. for 15 minutes, read-out: FXa 50% inhibitory concentration. On the procedure:
(§1) Measurement of FXa Inhibitory Action (IC50)
A sample solution (100 μl), 280 μl of a 100 mM tris −200 mM sodium chloride (pH 7.4) buffer and 100 μl of a 1 mM S2222 (Chromogenix Corp.) solution were mixed and heated at 37° C. To the resulting mixture, 20 μl of 0.625 U/ml human FXa (“Cosmobio-ERL HFXa-1011”, dissolved in and diluted with a measuring buffer) were added, followed by heating at 37° C. for 15 minutes. To the resulting mixture, 100 μl of 1M citric acid were added and then, the absorbance at 405 nm was measured. The mixture to which only the diluting solvent for the sample was added instead of the sample was used as a blank, while the mixture to which 1M citric acid was added prior to the addition of FXa was used as a control. The concentration of the sample (IC50) at which 50% of FXa activity was inhibited was determined and it was designated as an index of FXa inhibitory action.

The target in experiment [2] is T1, human FXa. Description: Measurement of Ki value against FXa. It is filed as biochemical. Conditions: substrate S2222, Dixon plot. As to the method:
Measurement of Ki Value Against FXa
In a 96-well microtiter plate, 5 μl of a sample solution, 5 μl of purified water, 40 μl of a 100 mM tris −200 mM sodium chloride −0.2% BSA (pH: 7.4) buffer and 10 μl of 0.05 U/ml human FXa (product of Enzyme Research, dissolved in and diluted with a measuring buffer) were poured, followed by the addition of 40 μl of S2222 (product of Chromogenix, final concentration: 75, 150, 300 and 600 μM). […] The median of six values available by solving simultaneous equations was designated as a Ki value.

The target of experiment [3] is T2, human thrombin (Homo sapiens, UniProt P00734).
T2 construct: purchased Sigma Chemical
The experiment in a line: Measurement of Ki value against thrombin. The class given is biochemical. Conditions: Dixon plot. On the procedure: Measurement of Ki Value Against Thrombin
In a 96-well microtiter plate, 5 μl of a sample solution, 5 μl of purified water, 40 μl of a 100 mM tris −200 mM sodium chloride −0.2% BSA (pH: 7.4) buffer and 10 μl of 5 U/ml human thrombin (product of Sigma Chemical, dissolved in and diluted with a measuring buffer) were poured in portions, followed by the addition of 40 μl of S2226 (product of Chromogenix, final concentration: 50, 100, 200 and 400 μM). […] The median of six values available by solving simultaneous equations was designated as a Ki value.

In experiment [4] the target is human Factor Xa (Homo sapiens, UniProt P00742). Description: Oral administration test: anti-FXa activity in the plasma. It is filed as in vivo. Conditions: rat, 30 mg/kg, one hour after the administration. As to the method: (§2) Test of Oral Administration
(§3) A sample was dissolved or suspended in a 0.5% (w/v) methyl cellulose solution and the resulting solution or suspension was orally administered (10 ml/kg) to a 8 to 11 week-old rat (Wistar male rat (Nippon SLC Co., Ltd.)) which had been fasted overnight. After administration of the sample, the blood to which 1/10 part by weight of 3.13% (w/v) sodium citrate had been added was collected from the cervical vein. The rat was awakened except during the blood collection. Feeding was re-started 6 hours after the blood collection. From each blood sample, the plasma was separated by centrifugal separation and anti-FXa activity in the blood and prothrombin time extending action were measured.
2-1) Measurement of Anti-FXa Activity in the Plasma
In a 96-well plate, 5 μl of the plasma was poured in portions, followed by the addition of 55 μl of a 8:1:2 mixture of 100 mM tris −200 mM sodium chloride −0.2% BSA (pH 7.4) buffer, water and 0.1 U/ml human Factor Xa solution (dissolved in and diluted with a measuring buffer) and 40 μl of 750 μM S-2222. After stirring for 10 seconds in a plate mixer, an increase (mOD/min) of the absorbance at 405 nm was measured at room temperature. The inhibitory ratio was calculated as follows:
An inhibitory ratio (%)=(1−OD of sample÷OD of control on average relative to blood-collecting time of sample)×100

For experiment [5], the system named is plasma. Description: Oral administration test: coagulation extending action (prothrombin time). It is filed as in vivo. Particulars: rat, 30 mg/kg, one hour after the administration. On the procedure:
as §2, §3
2-2) Measurement of Coagulation Extending Action in Oral Administration (Measurement of Prothrombin Time)
To 20 μl of the plasma, 40 μl of cynplastin (Organon Teknika/USA) were added and the coagulation time was measured. The ratio of the prothrombin time after the administration of the sample relative to the prothrombin time before the administration of the sample was designated as an index of the coagulation extending action.

Experiment [6] concerns the target T2, human thrombin. Description: Thrombin inhibitory action (IC50), reaction rate method. The class given is biochemical. Conditions: room temperature, read-out: thrombin 50% inhibitory concentration. As to the method: (§4) Measurement of Thrombin Inhibitory Action (IC50)
In a 96-well microtiter plate, 10 μl of a sample solution, 40 μl of a 100 mM tris −200 mM sodium chloride −0.2% BSA (pH: 7.4) buffer and 10 μl of 4 U/ml human thrombin (Sigma Chemical, dissolved in and diluted with a measuring buffer) were poured, followed by the addition of 40 μl of 500 μM S2266 (product of Chromogenix). An increase (mOD/min) in the absorbance at 405 nm was measured at room temperature. From the below-described equation, an inhibitory ratio % of each sample was determined. On a logarithmic probability paper, the final concentration of the sample and inhibitory ratio were plotted along the abscissa and the ordinate, respectively, whereby a 50% inhibitory concentration (IC50) was found.
(§5) Inhibitory ratio (%)=(1−OD of sample÷OD of control)×100

The target of experiment [7] is T1, human FXa. Description: FXa inhibitory action (IC50), reaction rate method. It is filed as biochemical. Particulars: room temperature, read-out: FXa 50% inhibitory concentration. As to the method:
as §1
In a 96-well microtiter plate, 10 μl of a sample solution, 40 μl of a 100 mM tris −200 mM sodium chloride −0.2% BSA (pH: 7.4) buffer and 10 μl of 0.05 U/ml human FXa (“Cosmobio-ERL HFXa-1011”, dissolved in and diluted with a measuring buffer) were poured in portions, followed by the addition of […] of S2222 (product of Chromogenix). An increase (mOD/min) in the absorbance at 405 nm was measured at room temperature. From the below-described equation, an inhibitory ratio % of each sample was determined. On a logarithmic probability paper, the final concentration of the sample and inhibitory ratio % were plotted along the abscissa and the ordinate, respectively, whereby a 50% inhibitory concentration (IC50) was determined.
as §5

In experiment [8] the test system is Plasma. The experiment in a line: Coagulation extending action (prothrombin time) in plasma. It is filed as biochemical. As to the method: Measurement of Coagulation Extending Action (Measurement of Prothrombin Time)
Plasma (20 μl) and 20 μl of a sample solution were mixed. To the resulting mixture, […] of cynplastin (product of Organon Teknika) were added and the coagulation time was measured. The concentration of the sample (CT2) at which the coagulation time of the plasma was increased twice was found and it was designated as an index of anticoagulant action.

Experiment [9] deals with T2, human thrombin. Description: Thrombin inhibitory action (IC50), end point method. The class given is biochemical. Particulars: 37° C. for 10 minutes, read-out: thrombin 50% inhibitory concentration. As to the method:
as §4
A sample solution (100 μl), 280 μl of a 100 mM tris −200 mM sodium chloride (pH 7.4) buffer and 100 μl of 1 mM S2238 (Chromogenix) solution were mixed and heated at 37° C. To the resulting mixture, 20 μl of 1 U/ml human thrombin (Sigma Chemical, dissolved in and diluted with a measuring buffer) were added, followed by heating at 37° C. for 10 minutes. To the resulting mixture, 100 μl of 1M citric acid were added and then, the absorbance at 405 nm was measured. The mixture to which only the diluting solvent was added instead of the sample was used as a blank, while the mixture to which 1M citric acid was added prior to the addition of thrombin was used as a control. The sample concentration (IC50) at which 50% of thrombin activity was inhibited was found and it was designated as an index of thrombin inhibitory action.

The test system of experiment [10] is tissue thromboplastin-derived rat DIC model. The experiment in a line: Anti-thrombus effects in a tissue thromboplastin-derived rat DIC model. The class given is in vivo. Particulars: oral 30 mg/kg, tissue thromboplastin one hour after the sample. On the procedure:
Testing Method of Anti-thrombus Effects in a Tissue Thromboplastin-derived Rat DIC Model
A rat was anesthetized with halothane. After the collection of the blood (for measurement of the number of platelets, anti-FXa activity and TAT) from its cervical vein by using 1/10 part by weight of 3.13% (w/v) sodium citrate, the sample was administered orally. At an appropriate time after the administration, the rat was intraperioneally anesthetized (1 mg/kg) with Nembutal (50 mg/ml pentobarbital sodium, Abott Laboratories), followed by intravenous drip of 0.2 U/ml of tissue thromboplastin (Thromboplastin C plus, Dade Diagnostics of P. R. Inc.,) from the femoral vein for one minute at a rate of 2.5 to 3.0 ml/kg/min. The blood was collected (for measuring the number of platelets and anti-FXa activity) from the cervical vein 10 minutes after the intravenous drip and the blood was collected (for measuring TAT) from the cervical vein 20 minutes after the blood collection. The number of platelets, anti-FXa activity in the plasma and TAT concentration of each blood sample were measured. The number of the platelets was measured by an automatic cytometer, while the anti-FXa activity in the plasma was measured in a similar manner to that described in Test 7.
For the measurement of TAT (Thrombin-anti Thrombin=complex), EnzygnostR TAT micro kit (Boering Verke) was employed.

A value given as a limit tells only on which side of the number the result lay.

T1 sequence (P00742 235-488 limits assumed): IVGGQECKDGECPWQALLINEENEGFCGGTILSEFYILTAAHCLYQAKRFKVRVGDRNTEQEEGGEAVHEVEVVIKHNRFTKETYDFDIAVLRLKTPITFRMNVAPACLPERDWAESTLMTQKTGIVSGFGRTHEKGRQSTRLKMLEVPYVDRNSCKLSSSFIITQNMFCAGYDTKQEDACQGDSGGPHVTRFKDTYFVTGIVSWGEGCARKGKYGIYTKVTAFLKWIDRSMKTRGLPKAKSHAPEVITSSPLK
T1 sequence (P00742 41-179 partner limits assumed): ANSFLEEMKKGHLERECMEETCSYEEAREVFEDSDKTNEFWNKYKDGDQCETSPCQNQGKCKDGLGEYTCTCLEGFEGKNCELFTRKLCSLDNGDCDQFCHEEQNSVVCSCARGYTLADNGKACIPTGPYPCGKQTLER
Chain of human Factor Xa (P00742 235-488 limits assumed): as the sequence (P00742 235-488 limits assumed) above
Chain of human Factor Xa (P00742 41-179 partner limits assumed): as the sequence (P00742 41-179 partner limits assumed) above

In the case of `O=C(c1ccc(-c2cc[n+]([O-])cc2)cc1)N1CCN(S(=O)(=O)c2ccc3cc(Cl)ccc3c2)CC1` [Example 6, 4-[4-[[4-[(6-Chloronaphthalen-2-yl)sulfonyl]piperazin-1-yl]carbonyl]phenyl]pyridine N-oxide], the IC50 in [1] was 125 nM.
One may read the Ki as the dissociation constant of the complex between target and ligand, obtained from inhibition or displacement. Turning to `C[N+]1([O-])CCc2nc(C(=O)N3CCN(S(=O)(=O)c4ccc5cc(Cl)ccc5c4)CC3)sc2C1` (stereo not shown) [Example 93], the Ki in experiment [2] was determined as 10.9 nM; in experiment [3], 3300 nM.
Turning to `Cl.O=C(C1CC=C(c2ccncc2)CC1)N1CCN(S(=O)(=O)c2ccc3cc(Cl)ccc3c2)CC1` (racemic) [Example 110, 1-[(6-Chloronaphthalen-2-yl)sulfonyl]-4-[[(1RS)-4-(pyridin-4-yl)-3-cyclohexene]carbonyl]piperazine hydrochloride], the “anti-FXa activity in the plasma” value in experiment [4] is recorded as 70%. Moreover, the “extension of the prothrombin time (ratio after/before administration)” value in [5] is listed as 1.18 times.
In the case of `O=C(c1ccc(-c2cccc[n+]2[O-])cc1)N1CCN(S(=O)(=O)c2ccc3cc(Cl)ccc3c2)CC1` [Example 19, 2-[4-[[4-[(6-Chloronaphthalen-2-yl)sulfonyl]piperazin-1-yl]carbonyl]phenyl]pyridine N-oxide], the IC50 in [6] was determined as 1900 nM; in experiment [1], 72 nM.
“2-[[4-[(6-Chloronaphthalen-2-yl)sulfonyl]piperazin-1-yl]carbonyl]-6,6-dimethyl-4,5,6,7-tetrahydrothiazolo[5,4-c]pyridinium iodide [Example 92]”: the IC50 in experiment [7] was 7.8 nM; in experiment [9], at least 200000 nM. Also, the “CT2 (concentration at which the coagulation time of the plasma was increased twice)” value in [8] was 0.35 µM.
Regarding `CC1Cc2nc(C(=O)N3CCN(S(=O)(=O)c4ccc5cc(Cl)ccc5c4)CC3C(N)=O)sc2CN1.Cl` (stereo not shown) [Example 95, 2-Carbamoyl-4-[(6-chloronaphthalen-2-yl)sulfonyl]-1-[(6-methyl-4,5,6,7-tetrahydrothiazolo[5,4-c]pyridin-2-yl)carbonyl]piperazine hydrochloride], in [10], the “anti-FXa action in the plasma” value is on record as “apparent anti-FXa action in the plasma was recognized”, the “decrease in the number of the platelets” value is “suppressed” and the “increase in the TAT concentration” value is given as “suppressed”.
